Experimental data: patent publication US20060069132A1, “Azolecarboxamide herbicides” (priority 2004, published 2006)

What was measured:
Surinam grass = test: Test C pre-/postemergence herbicide test; format: in vivo, Urochloa decumbens; conditions: for Plant response rating (0 = no effect, 100 = complete control), Surinam Grass / Plant response rating, Surinam Grass: preemergence
How it was run: (§1)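 Visual injury scores run from 0 (no effect) to 100 (complete control), assessed relative to untreated controls 12 to 14 days after treatment in the greenhouse. Chemicals were formulated in a non-phytotoxic solvent mixture with surfactant and applied to soil after planting or to emerged plants at the 1- to 4-leaf stage.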

corn = test: Test C pre-/postemergence herbicide test; format: in vivo, Zea mays; conditions: for Plant response rating (0 = no effect, 100 = complete control), Corn / Plant response rating, Corn: preemergence
How it was run: as §1

woolly cupgrass = test: Test C pre-/postemergence herbicide test; format: in vivo, Eriochloa villosa; conditions: for Plant response rating (0 = no effect, 100 = complete control), Cupgrass, Woolly / Plant response rating, Cupgrass, Woolly: preemergence
How it was run: as §1

goosegrass = test: Test C pre-/postemergence herbicide test; format: in vivo, Eleusine indica; conditions: for Plant response rating (0 = no effect, 100 = complete control), Goosegrass / Plant response rating, Goosegrass: preemergence
How it was run: as §1

kochia = test: Test C pre-/postemergence herbicide test; format: in vivo, Kochia scoparia; conditions: for Plant response rating (0 = no effect, 100 = complete control), Kochia / Plant response rating, Kochia: preemergence
How it was run: as §1

lambsquarters = test: Test C pre-/postemergence herbicide test; format: in vivo, Chenopodium album; conditions: for Plant response rating (0 = no effect, 100 = complete control), Lambsquarters / Plant response rating, Lambsquarters: preemergence
How it was run: as §1

morningglory = test: Test C pre-/postemergence herbicide test; format: in vivo, Ipomoea coccinea; parameters: key to Plant response rating, Morningglory: 0 = no effect, 100 = complete control; conditions: for Plant response rating (0 = no effect, 100 = complete control), Morningglory / Plant response rating, Morningglory: preemergence
How it was run: as §1

yellow nutsedge = test: Test C pre-/postemergence herbicide test; format: in vivo, Cyperus esculentus; conditions: for Plant response rating (0 = no effect, 100 = complete control), Nutsedge, Yellow / Plant response rating, Nutsedge, Yellow: preemergence
How it was run: as §1

pigweed = test: Test C pre-/postemergence herbicide test; format: in vivo, Amaranthus retroflexus; conditions: for Plant response rating (0 = no effect, 100 = complete control), Pigweed / Plant response rating, Pigweed: preemergence
How it was run: as §1

soybean = test: Test C pre-/postemergence herbicide test; format: in vivo, Glycine max; conditions: for Plant response rating (0 = no effect, 100 = complete control), Soybean / Plant response rating, Soybean: preemergence
How it was run: as §1

[1] = system: smallflower umbrella sedge; test: Test C flooded paddy test; format: in vivo, Cyperus difformis
barnyardgrass = test: Test C flooded paddy test; format: in vivo, Echinochloa crus-galli
How it was run: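 Postemergence sprays applied to plants 2 to 18 cm tall (1- to 4-leaf stage); paddy species grown to 2-leaf stage under flooding. After 12 to 14 days in greenhouse, visual rating versus untreated controls on 0–100 scale (0 no effect, 100 complete control).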

[2] = 125 g ai/ha, scale 0 (no effect) to 100 (complete control), visual, 12 to 14 days
[3] = 250 g ai/ha, scale 0 to 100 (0 no effect, 100 complete control), visual, 12 to 14 days
[4] = Preemergence, 500 g ai/ha, scale 0 to 100, 0 no effect, 100 complete control
[5] = 62 g ai/ha, scale 0 to 100 (0 no effect, 100 complete control)
[6] = 125 g ai/ha, scale of 0 to 100, 0 is no effect, 100 is complete control
[7] = 500 g ai/ha, scale 0 to 100 (0 no effect, 100 complete control), visual, 12 to 14 days

## CCN(C)C(=O)c1cccc(NC(=O)c2cc(C(C)(C)C)nn2CC)c1 [Compound 48]
Surinam grass; 62 g ai/ha
  Plant response rating (0 = no effect, 100 = complete control), Surinam Grass: 0
Surinam grass; [2]
  Plant response rating, Surinam Grass: 5
Surinam grass; [3]
  Plant response rating, Surinam Grass: 30
Surinam grass; [4]
  Surinam Grass plant response rating: 60
corn; 62 g ai/ha
  Plant response rating (0 = no effect, 100 = complete control), Corn: 0
corn; [2]
  Plant response rating, Corn: 0
corn; [3]
  Plant response rating, Corn: 0
corn; [4]
  Corn plant response rating: 0
Woolly cupgrass; 62 g ai/ha
  Plant response rating (0 = no effect, 100 = complete control), Cupgrass, Woolly: 0
Woolly cupgrass; [2]
  Plant response rating, Cupgrass, Woolly: 0
Woolly cupgrass; [3]
  Plant response rating, Cupgrass, Woolly: 5
Woolly cupgrass; [4]
  Cupgrass, Woolly plant response rating: 20
goosegrass; 62 g ai/ha
  Plant response rating (0 = no effect, 100 = complete control), Goosegrass: 20
goosegrass; [2]
  Plant response rating, Goosegrass: 70
goosegrass; [3]
  Plant response rating, Goosegrass: 90
goosegrass; [4]
  Goosegrass plant response rating: 90
kochia; 62 g ai/ha
  Plant response rating (0 = no effect, 100 = complete control), Kochia: 10
kochia; [2]
  Plant response rating, Kochia: 60
kochia; [3]
  Plant response rating, Kochia: 80
kochia; [4]
  Kochia plant response rating: 100
lambsquarters; 62 g ai/ha
  Plant response rating (0 = no effect, 100 = complete control), Lambsquarters: 85
lambsquarters; [2]
  Plant response rating, Lambsquarters: 95
lambsquarters; [3]
  Plant response rating, Lambsquarters: 95
lambsquarters; [4]
  Lambsquarters plant response rating: 95
morningglory; 62 g ai/ha
  Plant response rating (0 = no effect, 100 = complete control), Morningglory: 0
morningglory; [3]
  Plant response rating, Morningglory: 0
morningglory; [4]
  Morningglory plant response rating: 20
Yellow nutsedge; 62 g ai/ha
  Plant response rating (0 = no effect, 100 = complete control), Nutsedge, Yellow: 0
Yellow nutsedge; [2]
  Plant response rating, Nutsedge, Yellow: 0
Yellow nutsedge; [3]
  Plant response rating, Nutsedge, Yellow: 10
Yellow nutsedge; [4]
  Nutsedge, Yellow plant response rating: 30
pigweed; 62 g ai/ha
  Plant response rating (0 = no effect, 100 = complete control), Pigweed: 100
pigweed; [2]
  Plant response rating, Pigweed: 100
pigweed; [3]
  Plant response rating, Pigweed: 100
pigweed; [4]
  Pigweed plant response rating: 100
soybean; 62 g ai/ha
  Plant response rating (0 = no effect, 100 = complete control), Soybean: 0
soybean; [2]
  Plant response rating, Soybean: 0
soybean; [3]
  Plant response rating, Soybean: 0
soybean; [4]
  Soybean plant response rating: 30
[1]; 16 g ai/ha, scale 0 to 100
  Sedge, Umbrella plant response rating: 0
[1]; 31 g ai/ha, scale 0 to 100
  Sedge, Umbrella plant response rating: 0
[1]; [5]
  Sedge, Umbrella plant response rating: 60
[1]; [6]
  Sedge, Umbrella plant response rating: 60
barnyardgrass; 16 g ai/ha, scale 0 to 100
  Barnyardgrass plant response rating: 0
barnyardgrass; 31 g ai/ha, scale 0 to 100
  Barnyardgrass plant response rating: 0
barnyardgrass; [5]
  Barnyardgrass plant response rating: 0
barnyardgrass; [6]
  Barnyardgrass plant response rating: 0

## C=CCNC(=O)c1cccc(NC(=O)c2nn(C(C)(C)C)nc2CC)c1 [Compound 414]
Surinam grass; 62 g ai/ha, scale 0 to 100
  Plant response rating, Surinam Grass: 0
Surinam grass; 125 g ai/ha
  Plant response rating (0 = no effect, 100 = complete control), Surinam Grass: 80
Surinam grass; [7]
  Plant response rating, Surinam Grass: 100
corn; 62 g ai/ha, scale 0 to 100
  Plant response rating, Corn: 0
corn; 125 g ai/ha
  Plant response rating (0 = no effect, 100 = complete control), Corn: 0
corn; 250 g ai/ha, scale 0-100
  Plant response rating, Corn: 50
corn; [7]
  Plant response rating, Corn: 80
Woolly cupgrass; 62 g ai/ha, scale 0 to 100
  Plant response rating, Cupgrass, Woolly: 0
Woolly cupgrass; 125 g ai/ha
  Plant response rating (0 = no effect, 100 = complete control), Cupgrass, Woolly: 80
Woolly cupgrass; 250 g ai/ha, scale 0-100
  Plant response rating, Cupgrass, Woolly: 95
Woolly cupgrass; [7]
  Plant response rating, Cupgrass, Woolly: 100
goosegrass; 62 g ai/ha, scale 0 to 100
  Plant response rating, Goosegrass: 95
goosegrass; 125 g ai/ha
  Plant response rating (0 = no effect, 100 = complete control), Goosegrass: 100
goosegrass; 250 g ai/ha, scale 0-100
  Plant response rating, Goosegrass: 100
goosegrass; [7]
  Plant response rating, Goosegrass: 100
kochia; 62 g ai/ha, scale 0 to 100
  Plant response rating, Kochia: 60
kochia; 125 g ai/ha
  Plant response rating (0 = no effect, 100 = complete control), Kochia: 75
kochia; 250 g ai/ha, scale 0-100
  Plant response rating, Kochia: 80
kochia; [7]
  Plant response rating, Kochia: 100
lambsquarters; 62 g ai/ha, scale 0 to 100
  Plant response rating, Lambsquarters: 95
lambsquarters; 125 g ai/ha
  Plant response rating (0 = no effect, 100 = complete control), Lambsquarters: 95
lambsquarters; 250 g ai/ha, scale 0-100
  Plant response rating, Lambsquarters: 95
lambsquarters; [7]
  Plant response rating, Lambsquarters: 100
morningglory; 62 g ai/ha, scale 0 to 100
  Plant response rating, Morningglory: 10
morningglory; 125 g ai/ha
  Plant response rating (0 = no effect, 100 = complete control), Morningglory: 55
morningglory; [7]
  Plant response rating, Morningglory: 95
Yellow nutsedge; 62 g ai/ha, scale 0 to 100
  Plant response rating, Nutsedge, Yellow: 0
Yellow nutsedge; 125 g ai/ha
  Plant response rating (0 = no effect, 100 = complete control), Nutsedge, Yellow: 0
Yellow nutsedge; [7]
  Plant response rating, Nutsedge, Yellow: 20
pigweed; 62 g ai/ha, scale 0 to 100
  Plant response rating, Pigweed: 100
pigweed; 125 g ai/ha
  Plant response rating (0 = no effect, 100 = complete control), Pigweed: 100
pigweed; [7]
  Plant response rating, Pigweed: 100
soybean; 62 g ai/ha, scale 0 to 100
  Plant response rating, Soybean: 0
soybean; 125 g ai/ha
  Plant response rating (0 = no effect, 100 = complete control), Soybean: 20
soybean; [7]
  Plant response rating, Soybean: 65
